The values below come from PubChem BioAssay AID256 (DTP/NCI, 2004).

The experiment has as its system CD2F1 mice, L1210 leukemia ip, survival T/C. The experiment in a line: NCI In Vivo Anticancer Drug Screen. Data for tumor model L1210 Leukemia (intraperitoneal) in CD2F1 (CDF1) mice. Conditions: higher = longer survival. The gist of the method: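 Read-out first: treated-group measurement over vehicle-control measurement, expressed as a ratio. Animals bore a transplanted tumor line and were dosed with compound or vehicle.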

The mark [1] stands for this setting: endpoint: mean survival time, dose: 100.0 mg/kg/injection, schedule: Q01DX009 (ip), vehicle: saline with Tween-80.
The mark [2] stands for this setting: endpoint: mean survival time, dose: 200.0 mg/kg/injection, schedule: Q01DX009 (ip), vehicle: saline with Tween-80.
The mark [3] stands for this setting: endpoint: mean survival time, dose: 400.0 mg/kg/injection, schedule: Q01DX009 (ip), vehicle: saline with Tween-80.
Where [4] appears, read: endpoint: mean survival time, dose: 100.0 mg/kg/injection, schedule: Q01DX001 (ip), vehicle: saline with Tween-80.
Setting [5] is: endpoint: mean survival time, dose: 200.0 mg/kg/injection, schedule: Q01DX001 (ip), vehicle: saline with Tween-80.
Setting [6] is: endpoint: mean survival time, dose: 400.0 mg/kg/injection, schedule: Q01DX001 (ip), vehicle: saline with Tween-80.
[7] abbreviates: endpoint: mean survival time, dose: 100.0 mg/kg/injection, schedule: Q01DX009 (ip), vehicle: saline.
Setting [8] is: endpoint: mean survival time, dose: 100.0 mg/kg/injection, schedule: Q04DX003 (ip), vehicle: saline with Tween-80.
Setting [9] is: endpoint: mean survival time, dose: 200.0 mg/kg/injection, schedule: Q04DX003 (ip), vehicle: saline with Tween-80.
The mark [10] stands for this setting: endpoint: mean survival time, dose: 400.0 mg/kg/injection, schedule: Q04DX003 (ip), vehicle: saline with Tween-80.
Setting [11] is: endpoint: mean survival time, dose: 100.0 mg/kg/injection, schedule: Q01DX001 (ip), vehicle: saline.
The mark [12] stands for this setting: endpoint: mean survival time, dose: 200.0 mg/kg/injection, schedule: Q01DX001 (ip), vehicle: saline.

Values joined by “and” are separate entries in the source; they are usually repeats but may differ in a detail not shown here. Equal entries are not always repeated. Toxic doses and inconclusive results are not listed.

`COC1=C(Br)[C@H](O)[C@](O)(CC#N)C=C1Br`: the T/C by setting is: (endpoint: mean survival time, dose: 6.25 mg/kg/injection, schedule: Q01DX009 (ip), vehicle: saline) 113 % of control; (endpoint: mean survival time, dose: 12.5 mg/kg/injection, schedule: Q01DX009 (ip), vehicle: saline) 111 % of control; (endpoint: mean survival time, dose: 17.5 mg/kg/injection, schedule: Q01DX009 (ip), vehicle: Klucel (hydroxypropylcellulose) (HPC)) 98 % of control; (endpoint: mean survival time, dose: 25.0 mg/kg/injection, schedule: Q01DX009 (ip), vehicle: saline) 117 % of control; (endpoint: mean survival time, dose: 35.0 mg/kg/injection, schedule: Q01DX009 (ip), vehicle: Klucel (hydroxypropylcellulose) (HPC)) 100 % of control; (endpoint: mean survival time, dose: 70.0 mg/kg/injection, schedule: Q01DX009 (ip), vehicle: Klucel (hydroxypropylcellulose) (HPC)) 102 % of control.
Regarding `S=c1[nH]n(-c2ccccc2)c(=S)s1`, under “endpoint: mean survival time, dose: 75.0 mg/kg/injection, schedule: Q04DX003 (ip), vehicle: saline”, the T/C is 100 % of control.
Turning to `ClCC1(CCl)COC(c2ccccc2)OC1`, the T/C runs as follows: under setting [1], 95 % of control; under setting [2], 95 % of control; under setting [3], 94 % of control.
Consider `NNC(=O)c1ccc(O)cc1`, for which the T/C was 90 % of control under setting [4], 94 % of control under setting [5] and 96 % of control under setting [6].
Consider `Nc1nc2c(ncn2-c2cccc(NC(=O)c3cccc(S(=O)(=O)F)c3)c2)c(=O)[nH]1`, for which the T/C runs as follows: (endpoint: mean survival time, dose: 50.0 mg/kg/injection, schedule: Q04DX002 (ip), vehicle: saline with Tween-80) 108 % of control; (endpoint: mean survival time, dose: 100.0 mg/kg/injection, schedule: Q04DX002 (ip), vehicle: saline with Tween-80) 94 % of control; (endpoint: mean survival time, dose: 200.0 mg/kg/injection, schedule: Q04DX002 (ip), vehicle: saline with Tween-80) 90 % of control.
For `Cc1nocc1CC1=C2CCCC(=O)C2(C)CCC1=O` (configuration not stated), the T/C (endpoint: mean survival time, dose: 100.0 mg/kg/injection, schedule: Q01DX001 (ip), vehicle: alcohol) was 94 % of control; the T/C (endpoint: mean survival time, dose: 200.0 mg/kg/injection, schedule: Q01DX001 (ip), vehicle: alcohol) is 92 % of control; the T/C (endpoint: mean survival time, dose: 400.0 mg/kg/injection, schedule: Q01DX001 (ip), vehicle: alcohol) is 95 % of control.
`CC(C)OC(=O)Nc1cc(F)c(F)cc1F`: the T/C under setting [1] was 103 % of control, the T/C under setting [2] was 103 % of control and the T/C under setting [3] is 103 % of control.
Regarding `CCCNCC(=O)O[C@]1(CC)C(=O)OCc2c1cc1n(c2=O)Cc2cc3ccccc3nc2-1`, the T/C was 112 % of control (endpoint: median survival time, dose: 7.5 mg/kg/injection, schedule: Q04DX002 (ip), vehicle: saline); 159 % of control and 204 % of control (endpoint: median survival time, dose: 30.0 mg/kg/injection, schedule: Q04DX002 (ip), vehicle: saline); 116 % of control and 106 % of control (endpoint: median survival time, dose: 60.0 mg/kg/injection, schedule: Q04DX002 (ip), vehicle: saline).
On to `NC(=S)NNC(=O)c1ccccc1`, for which the T/C is 91 % of control (endpoint: mean survival time, dose: 100.0 mg/kg/injection, schedule: Q04DX003 (ip), vehicle: Klucel (hydroxypropylcellulose) (HPC)) and 91 % of control (endpoint: mean survival time, dose: 200.0 mg/kg/injection, schedule: Q04DX003 (ip), vehicle: Klucel (hydroxypropylcellulose) (HPC)).
On to `COC(=O)CCC(=O)C=[N+]=[N-]`, for which the T/C was 94 % of control (endpoint: mean survival time, dose: 1.5 mg/kg/injection, schedule: Q01DX009 (ip), vehicle: other); 94 % of control (endpoint: mean survival time, dose: 3.1 mg/kg/injection, schedule: Q01DX009 (ip), vehicle: other); 91 % of control (endpoint: mean survival time, dose: 6.2 mg/kg/injection, schedule: Q01DX009 (ip), vehicle: other); 91 % of control (endpoint: mean survival time, dose: 12.5 mg/kg/injection, schedule: Q01DX009 (ip), vehicle: other).
`Nc1nc(/C=C/c2ccc([N+](=O)[O-])cc2)c(-c2ccc(Cl)c(Cl)c2)c(=O)[nH]1`: the T/C is 92 % of control under setting [4], 89 % of control under setting [5] and 90 % of control under setting [6].
As for `Cc1cc(N)c(O)cc1C`, the T/C under setting [7] is 96 % of control.
Regarding `CC(=O)OC1CS(=O)(=O)CC1Br` (configuration not stated), the T/C is 103 % of control under setting [4], 98 % of control under setting [5] and 98 % of control under setting [6].
Consider `CCC1(O)C(=O)OCc2c1cc1n(c2=O)Cc2cc3cc(C)ccc3nc2-1` (configuration not stated), for which the T/C is, setting by setting: (endpoint: median survival time, dose: 10.0 mg/kg/injection, schedule: Q04DX002 (ip), vehicle: saline with Tween-80) 151 % of control and 207 % of control; (endpoint: median survival time, dose: 20.0 mg/kg/injection, schedule: Q04DX002 (ip), vehicle: saline with Tween-80) 151 % of control and 192 % of control; (endpoint: median survival time, dose: 40.0 mg/kg/injection, schedule: Q04DX002 (ip), vehicle: saline with Tween-80) 162 % of control and 195 % of control; (endpoint: median survival time, dose: 80.0 mg/kg/injection, schedule: Q04DX002 (ip), vehicle: saline with Tween-80) 186 % of control; (endpoint: median survival time, dose: 160.0 mg/kg/injection, schedule: Q04DX002 (ip), vehicle: saline with Tween-80) 114 % of control.
As to `C/C=C1/CC2C=Nc3cc(O)c(OC)cc3C(=O)N2C1` (configuration not stated), the T/C was 100 % of control (endpoint: median survival time, dose: 0.02 mg/kg/injection, schedule: Q01DX005 (ip), vehicle: DMSO); 101 % of control (endpoint: median survival time, dose: 0.04 mg/kg/injection, schedule: Q01DX005 (ip), vehicle: DMSO); 104 % of control (endpoint: median survival time, dose: 0.08 mg/kg/injection, schedule: Q01DX005 (ip), vehicle: DMSO); 113 % of control (endpoint: median survival time, dose: 0.16 mg/kg/injection, schedule: Q01DX005 (ip), vehicle: DMSO); 121 % of control (endpoint: median survival time, dose: 0.32 mg/kg/injection, schedule: Q01DX005 (ip), vehicle: DMSO).
For `O=C1C=C(C2CCCCC2)C(=O)c2ccccc21`, the T/C reads like this: under setting [1], 88 % of control; under setting [8], 98 % of control; under setting [2], 91 % of control; under setting [9], 92 % of control; under setting [3], 95 % of control; under setting [10], 95 % of control.
For the compound `COc1ccc(OC)c(Cc2cnc3nc(N)nc(N)c3c2C)c1`, the T/C reads like this: (endpoint: median survival time, dose: 2.5 mg/kg/injection, schedule: Q01DX009 (ip), vehicle: dextrose) 103 % of control; (endpoint: median survival time, dose: 5.0 mg/kg/injection, schedule: Q01DX009 (ip), vehicle: dextrose) 101 % of control and 102 % of control; (endpoint: median survival time, dose: 6.25 mg/kg/injection, schedule: Q01DX009 (ip), vehicle: water) 95 % of control; (endpoint: median survival time, dose: 10.0 mg/kg/injection, schedule: Q01DX009 (ip), vehicle: dextrose) 101 % of control and 102 % of control; (endpoint: median survival time, dose: 12.5 mg/kg/injection, schedule: Q01DX009 (ip), vehicle: water) 98 % of control; (endpoint: median survival time, dose: 20.0 mg/kg/injection, schedule: Q01DX009 (ip), vehicle: dextrose) 106 % of control and 112 % of control. Moreover, the T/C is 111 % of control (endpoint: median survival time, dose: 25.0 mg/kg/injection, schedule: Q01DX009 (ip), vehicle: water); 151 % of control (endpoint: median survival time, dose: 50.0 mg/kg/injection, schedule: Q01DX009 (ip), vehicle: water); 103 % of control (endpoint: median survival time, dose: 80.0 mg/kg/injection, schedule: Q01DX009 (ip), vehicle: dextrose); 88 % of control (endpoint: median survival time, dose: 100.0 mg/kg/injection, schedule: Q01DX009 (ip), vehicle: water).
Turning to `O=c1[nH]cc(COCc2ccccc2)c(=O)[nH]1`, the T/C is, setting by setting: under setting [8], 98 % of control; under setting [9], 104 % of control; under setting [10], 96 % of control.
On to `C=CCOc1c(C)cc(C)cc1C`, for which the T/C (endpoint: mean survival time, dose: 50.0 mg/kg/injection, schedule: Q01DX009 (ip), vehicle: Klucel (hydroxypropylcellulose) (HPC)) was 113 % of control; the T/C (endpoint: mean survival time, dose: 100.0 mg/kg/injection, schedule: Q01DX009 (ip), vehicle: Klucel (hydroxypropylcellulose) (HPC)) was 94 % of control; the T/C (endpoint: mean survival time, dose: 200.0 mg/kg/injection, schedule: Q01DX009 (ip), vehicle: Klucel (hydroxypropylcellulose) (HPC)) was 102 % of control.
With `O=C(O)C(O)Cn1ccccc1=O` (configuration not stated), the T/C runs as follows: (endpoint: mean survival time, dose: 50.0 mg/kg/injection, schedule: Q01DX001 (ip), vehicle: saline) 104 % of control; under setting [11], 96 % of control; under setting [12], 101 % of control.
In the case of `OC1CCC(CC2CCCCC2)CC1` (configuration not stated), the T/C by setting is: under setting [1], 95 % of control; under setting [2], 92 % of control.
For `CC(=O)c1cc(-c2ccccc2)nc2c(Cl)cc(Cl)cc12`, the T/C is, setting by setting: under setting [11], 102 % of control; under setting [12], 91 % of control; (endpoint: mean survival time, dose: 400.0 mg/kg/injection, schedule: Q01DX001 (ip), vehicle: saline) 103 % of control.
Regarding `COc1ccc2c(c1O)C1=CC(=O)CCC13CCN(C)C3C2` (configuration not stated), the T/C was 103 % of control under setting [7] and 96 % of control (endpoint: mean survival time, dose: 200.0 mg/kg/injection, schedule: Q01DX009 (ip), vehicle: saline).
`CCOCc1cc(C)[nH]c(=O)c1C#N`: the T/C was 96 % of control under setting [8] and 98 % of control under setting [9].
